# Measured values published in ChEMBL document CHEMBL3217615, “Novel 3,5-bis(arylidiene)-4-piperidone based monocarbonyl analogs of curcumin: anticancer activity evaluation and mode of action study” (2014).
# How the values were obtained:
# Type in all cases: functional
# [1] = Growth inhibition of human OVCAR3 cells assessed as cell growth at 10^-6 M after 48 hrs by sulforhodamine B assay; details: OVCAR-3, 48 h, read-out: Activity
# [2] = tested on: SF-268; test: Growth inhibition of human SF268 cells assessed as cell growth at 10^-6 M after 48 hrs by sulforhodamine B assay; details: SF-268, 48 h, read-out: Activity
# [3] = tested on: NCI-H322M; test: Growth inhibition of human NCI-H322M cells assessed as cell growth at 10^-6 M after 48 hrs by sulforhodamine B assay; details: read-out: Activity
# [4] = Growth inhibition of human BT549 cells assessed as cell growth at 10^-7 M after 48 hrs by sulforhodamine B assay; details: BT-549, 48 h, read-out: Activity
# [5] = Growth inhibition of human OVCAR4 cells assessed as cell growth at 10^-7 M after 48 hrs by sulforhodamine B assay; details: OVCAR-4, 48 h, read-out: Activity
# [6] = tested on: U-251; test: Growth inhibition of human U251 cells assessed as cell growth at 10^-5 M after 48 hrs by sulforhodamine B assay; details: U-251, 48 h, read-out: Activity
# [7] = tested on: 786-0; test: Growth inhibition of human 786-0 cells assessed as cell growth at 10^-6 M after 48 hrs by sulforhodamine B assay; details: 786-0, 48 h, read-out: Activity
# [8] = tested on: SK-OV-3; test: Growth inhibition of human SKOV3 cells assessed as cell growth at 10^-6 M after 48 hrs by sulforhodamine B assay; details: SK-OV-3, 48 h, read-out: Activity
# [9] = Growth inhibition of human OVCAR8 cells assessed as cell growth at 10^-4 M after 48 hrs by sulforhodamine B assay; details: OVCAR-8, 48 h, read-out: Activity
# [10] = Growth inhibition of human OVCAR4 cells assessed as cell growth at 10^-4 M after 48 hrs by sulforhodamine B assay; details: OVCAR-4, 48 h, read-out: Activity
# [11] = tested on: U-251; test: Growth inhibition of human U251 cells assessed as cell growth at 10^-4 M after 48 hrs by sulforhodamine B assay; details: U-251, 48 h, read-out: Activity
# [12] = tested on: KM12; test: Growth inhibition of human KM12 cells assessed as cell growth at 10^-4 M after 48 hrs by sulforhodamine B assay; details: KM12, 48 h, read-out: Activity
# [13] = Growth inhibition of human HCT15 cells assessed as cell growth at 10^-8 M after 48 hrs by sulforhodamine B assay; details: HCT-15, 48 h; for growth at 0.01 µM: read-out: Activity; for TGI: read-out: pTGI (converted)
# [14] = tested on: HCT-116; test: Growth inhibition of human HCT116 cells assessed as cell growth at 10^-8 M after 48 hrs by sulforhodamine B assay; details: HCT-116, 48 h; for growth at 0.01 µM: read-out: Activity; for TGI: read-out: pTGI (converted)
# [15] = tested on: NCI-H522; test: Growth inhibition of human NCI-H522 cells assessed as cell growth at 10^-8 M after 48 hrs by sulforhodamine B assay; details: NCI-H522, 48 h; for growth at 0.01 µM: read-out: Activity; for CC50: read-out: pLC50 (the source's name) (converted); for TGI: read-out: pTGI (converted)
# [16] = tested on: K562; test: Growth inhibition of human K562 cells assessed as cell growth at 10^-8 M after 48 hrs by sulforhodamine B assay; details: K562, 48 h; for growth at 0.01 µM: read-out: Activity; for CC50: read-out: pLC50 (the source's name) (converted); for TGI: read-out: pTGI (converted)
# [17] = tested on: DU-145; test: Growth inhibition of human DU145 cells after 48 hrs by sulforhodamine B assay; details: DU-145, 48 h; for CC50: read-out: LC50 (the source's name)
# [18] = Growth inhibition of human OVCAR5 cells after 48 hrs by sulforhodamine B assay; details: OVCAR-5, 48 h; for CC50: read-out: LC50 (the source's name)
# [19] = tested on: M14; test: Growth inhibition of human M14 cells after 48 hrs by sulforhodamine B assay; details: M14, 48 h; for CC50: read-out: LC50 (the source's name)
# [20] = tested on: COLO 205; test: Growth inhibition of human COLO205 cells after 48 hrs by sulforhodamine B assay; details: COLO 205, 48 h; for CC50: read-out: LC50 (the source's name)
# [21] = tested on: NCI-H23; test: Growth inhibition of human NCI-H23 cells after 48 hrs by sulforhodamine B assay; details: NCI-H23, 48 h; for CC50: read-out: LC50 (the source's name)
# [22] = tested on: T47D; test: Growth inhibition of human T47D cells assessed as cell growth at 10^-4 M after 48 hrs by sulforhodamine B assay; details: read-out: Activity
# [23] = tested on: MCF7; test: Growth inhibition of human MCF7 cells assessed as cell growth at 10^-4 M after 48 hrs by sulforhodamine B assay; details: MCF7, 48 h, read-out: Activity
# [24] = Growth inhibition of human RXF393 cells assessed as cell growth at 10^-4 M after 48 hrs by sulforhodamine B assay; details: RXF 393, 48 h, read-out: Activity
# [25] = tested on: CAKI-1; test: Growth inhibition of human CAKI-1 cells assessed as cell growth at 10^-4 M after 48 hrs by sulforhodamine B assay; details: CAKI-1, 48 h, read-out: Activity
# [26] = tested on: SK-MEL-28; test: Growth inhibition of human SK-MEL-28 cells assessed as cell growth at 10^-7 M after 48 hrs by sulforhodamine B assay; details: SK-MEL-28, 48 h, read-out: Activity
# [27] = tested on: M14; test: Growth inhibition of human M14 cells assessed as cell growth at 10^-7 M after 48 hrs by sulforhodamine B assay; details: M14, 48 h, read-out: Activity
# [28] = tested on: U-251; test: Growth inhibition of human U251 cells assessed as cell growth at 10^-7 M after 48 hrs by sulforhodamine B assay; details: U-251, 48 h, read-out: Activity
# [29] = tested on: NCI-H522; test: Growth inhibition of human NCI-H522 cells assessed as cell growth at 10^-7 M after 48 hrs by sulforhodamine B assay; details: NCI-H522, 48 h, read-out: Activity
# [30] = tested on: CCRF-CEM; test: Growth inhibition of human CCRF-CEM cells assessed as cell growth at 10^-7 M after 48 hrs by sulforhodamine B assay; details: read-out: Activity
# [31] = tested on: PC-3; test: Growth inhibition of human PC3 cells assessed as cell growth at 10^-8 M after 48 hrs by sulforhodamine B assay; details: PC-3, 48 h; for growth at 0.01 µM: read-out: Activity; for TGI: read-out: pTGI (converted)
# [32] = tested on: A498; test: Growth inhibition of human A498 cells assessed as cell growth at 10^-8 M after 48 hrs by sulforhodamine B assay; details: A498, 48 h; for growth at 0.01 µM: read-out: Activity; for TGI: read-out: pTGI (converted)
# [33] = Growth inhibition of human NCI-ADR-RES cells assessed as cell growth at 10^-8 M after 48 hrs by sulforhodamine B assay; details: for growth at 0.01 µM: read-out: Activity; for TGI: read-out: pTGI (converted)
smiles,measurement,setting,value
Cc1ccc(S(=O)(=O)N2C/C(=C\c3cc(F)cc(F)c3)C(=O)/C(=C/c3cc(F)cc(F)c3)C2)cc1,growth at 1 µM,[1],16%
same,growth at 1 µM,[2],21%
same,growth at 1 µM,[3],101%
same,growth at 0.1 µM,[4],111%
same,growth at 0.1 µM,[5],93%
same,growth at 10 µM,[6],-97.9%
same,growth at 1 µM,[7],34%
same,growth at 1 µM,[8],77%
same,growth at 100 µM,[9],-71%
same,growth at 100 µM,[10],-81%
same,growth at 100 µM,[11],-96%
same,growth at 100 µM,[12],-88%
same,GI50,[13],0.251 µM
same,LC50,[13],30.9 µM
same,growth at 0.01 µM,[13],91%
same,TGI,[13],1.29 µM
same,GI50,[14],0.209 µM
same,LC50,[14],1.95 µM
same,growth at 0.01 µM,[14],107%
same,TGI,[14],0.537 µM
same,GI50,[15],0.316 µM
same,growth at 0.01 µM,[15],100%
same,CC50,[15],3.89 µM
same,TGI,[15],0.955 µM
same,GI50,[16],0.0776 µM
same,growth at 0.01 µM,[16],94%
same,CC50,[16],> 100 µM
same,TGI,[16],1.38 µM
same,GI50,[17],1.24 µM
same,TGI,[17],3.08 µM
same,CC50,[17],7.62 µM
same,GI50,[18],1.02 µM
same,TGI,[18],2.75 µM
same,CC50,[18],7.4 µM
same,GI50,[19],0.359 µM
same,TGI,[19],1.4 µM
same,CC50,[19],5.91 µM
same,GI50,[20],0.612 µM
same,TGI,[20],2.11 µM
same,CC50,[20],6.14 µM
same,GI50,[21],1.75 µM
same,TGI,[21],4.99 µM
same,CC50,[21],26.8 µM
same,growth at 100 µM,[22],-61%
same,growth at 100 µM,[23],-72%
same,growth at 100 µM,[24],-95%
same,growth at 100 µM,[25],-57%
same,growth at 0.1 µM,[26],93%
same,growth at 0.1 µM,[27],98%
same,growth at 0.1 µM,[28],80%
same,growth at 0.1 µM,[29],102%
same,growth at 0.1 µM,[30],44%
same,GI50,[31],0.245 µM
same,LC50,[31],9.33 µM
same,growth at 0.01 µM,[31],93%
same,TGI,[31],0.794 µM
same,GI50,[32],1.86 µM
same,LC50,[32],8.71 µM
same,growth at 0.01 µM,[32],96%
same,TGI,[32],4.07 µM
same,GI50,[33],0.437 µM
same,LC50,[33],75.9 µM
same,growth at 0.01 µM,[33],104%
same,TGI,[33],10.2 µM
O=C1/C(=C/c2ccc(Cl)cc2Cl)CN(S(=O)(=O)c2ccccc2)C/C1=C\c1ccc(Cl)cc1Cl,growth at 1 µM,[1],-10%
same,growth at 1 µM,[2],24%
same,growth at 1 µM,[3],35%
same,growth at 0.1 µM,[4],110%
same,growth at 0.1 µM,[5],82%
same,growth at 10 µM,[6],-66%
same,growth at 1 µM,[7],-37%
same,growth at 1 µM,[8],108%
same,growth at 100 µM,[9],-14%
same,growth at 100 µM,[10],15%
same,growth at 100 µM,[11],-63%
same,growth at 100 µM,[12],-56%
same,GI50,[13],0.245 µM
same,LC50,[13],> 100 µM
same,growth at 0.01 µM,[13],95%
same,TGI,[13],0.759 µM
same,GI50,[14],0.2 µM
same,LC50,[14],0.912 µM
same,growth at 0.01 µM,[14],99%
same,TGI,[14],0.427 µM
same,GI50,[15],0.851 µM
same,growth at 0.01 µM,[15],95%
same,CC50,[15],9.77 µM
same,TGI,[15],3.02 µM
same,GI50,[16],0.347 µM
same,growth at 0.01 µM,[16],102%
same,CC50,[16],> 100 µM
same,TGI,[16],> 100 µM
same,GI50,[17],0.446 µM
same,TGI,[17],18.8 µM
same,CC50,[17],> 100 µM
same,GI50,[18],2.13 µM
same,TGI,[18],7.43 µM
same,CC50,[18],> 100 µM
same,GI50,[19],3.66 µM
same,TGI,[19],> 100 µM
same,CC50,[19],> 100 µM
same,GI50,[20],0.424 µM
same,TGI,[20],2.01 µM
same,CC50,[20],> 100 µM
same,GI50,[21],0.423 µM
same,TGI,[21],2.71 µM
same,CC50,[21],> 100 µM
same,growth at 100 µM,[22],11%
same,growth at 100 µM,[23],9%
same,growth at 100 µM,[24],-88%
same,growth at 100 µM,[25],-11%
same,growth at 0.1 µM,[26],93%
same,growth at 0.1 µM,[27],104%
same,growth at 0.1 µM,[28],86%
same,growth at 0.1 µM,[29],97%
same,growth at 0.1 µM,[30],92%
same,GI50,[31],0.288 µM
same,LC50,[31],> 100 µM
same,growth at 0.01 µM,[31],100%
same,TGI,[31],1.02 µM
same,GI50,[32],0.724 µM
same,LC50,[32],> 100 µM
same,growth at 0.01 µM,[32],67%
same,TGI,[32],4.37 µM
same,GI50,[33],1.38 µM
same,LC50,[33],> 100 µM
same,growth at 0.01 µM,[33],105%
same,TGI,[33],> 100 µM
